Structures can show the parent of a compound that is named as a salt.
Key:
[1] = tested on: NCI-H292 lung cancer cells; assay: FDA drug screening, complete media vs cholesterol-free media without statin (TABLE 1); assay type: cell-based, human
[2] = tested on: NCI-H292 lung cancer cells; assay: FDA drug screening, complete media vs cholesterol-free media with simvastatin (TABLE 2); assay type: cell-based, human; conditions: for Cholesterol-free media + simvastatin (0.04 μM) / Complete Media: NCI-H292 cells
[3] = NCI-H292 cells, cholesterol-free media without statin
[4] = complete vs cholesterol-free media, greater than 0 enhanced anti-cancer activity, about 0 neutral, below 0 antagonists
[5] = drug in cholesterol-free media with simvastatin 0.04 μM
[6] = complete media vs cholesterol-free media + simvastatin (0.04 μM), >0 enhanced anti-cancer activity, about 0 neutral, <0 antagonist
[7] = NCI-H292 cells, cholesterol-free media without statin, FDA drug library screen
[8] = NCI-H292 cells, complete media, FDA drug library screen
[9] = Complete minus Cholesterol-free, >0 enhanced anti-cancer activity, about 0 neutral, <0 antagonist
[10] = FDA library drug in complete media
[11] = complete vs cholesterol-free media, >0 enhanced anti-cancer activity, about 0 neutral, <0 antagonist
[12] = FDA drug library screen, cholesterol-free media with simvastatin 0.04 μM
[13] = FDA drug library screen, complete media
[14] = complete media minus cholesterol-free media + simvastatin, >0 enhanced anti-cancer activity, about 0 neutral, <0 antagonist
[15] = Complete minus Cholesterol-free, greater than 0 enhanced anti-cancer activity, about 0 neutral, below 0 antagonists
[16] = NCI-H292 cells in cholesterol-free media without statin
[17] = NCI-H292 cells in complete media
[18] = FDA library drug in cholesterol-free media with simvastatin 0.04 μM
[19] = cholesterol-free media with simvastatin 0.04 μM, FDA drug library screen (TABLE 2)
[20] = complete media, FDA drug library screen (TABLE 2)
[21] = complete media minus cholesterol-free media + simvastatin (0.04 μM), >0 enhanced anti-cancer activity, about 0 neutral, <0 antagonist
[22] = cholesterol-free media with simvastatin 0.04 μM, cell growth value in FDA drug screen
[23] = complete media, cell growth value in FDA drug screen

O=C(NCc1c(F)cc(F)cc1F)c1cn2c(c(O)c1=O)C(=O)N1[C@H]3CC[C@H](C3)O[C@@H]1C2 [Bictegravir]
Cholesterol-free [1, 3]: 1.057
Complete ([1]; NCI-H292 cells, complete media): 0.7123
Difference [1, 4]: −0.34
Cholesterol-free media + simvastatin (0.04 μM) [2, 5]: 1.109
Complete Media ([2]; drug in complete media): 0.9083
Difference [2, 6]: −0.20

CC(C)N(CC[C@H](c1ccccc1)c1cc(CO)ccc1O)C(C)C [Desfesoterodine]
Cholesterol-free [1, 7]: 0.7501
Complete [1, 8]: 1.3
Difference ([1]; complete vs cholesterol-free media, […]): 0.55
Cholesterol-free media + simvastatin (0.04 μM) [2, 5]: 1.01
Complete Media ([2]; drug in complete media): 0.8395
Difference ([2]; complete media vs cholesterol-free media + simvastatin (0.04 μM), […]): −0.17

C[C@@H]1CC[C@H]2[C@@H](C)C(=O)O[C@@H]3O[C@@]4(C)CC[C@@H]1[C@]32OO4 [Artemisinin]
Difference [1, 9]: −0.06
Cholesterol-free [1, 7]: 0.8489
Complete [1, 8]: 0.7892
Complete Media [2, 10]: 0.8603
Difference [2, 6]: −0.76

Fenticonazole (Nitrate)
Cholesterol-free [1, 7]: 0.9899
Difference [1, 11]: 0.08
Cholesterol-free media + simvastatin (0.04 μM) [2, 12]: 0.6564
Complete Media [2, 13]: 1.167
Difference [2, 14]: 0.51

COc1ccc(C(=O)CC(=O)c2ccc(C(C)(C)C)cc2)cc1 [Avobenzone]
Difference [1, 15]: −0.48
Cholesterol-free [1, 16]: 1.457
Complete [1, 17]: 0.9767
Cholesterol-free media + simvastatin (0.04 μM) [2, 12]: 1.07
Complete Media [2, 13]: 0.9672
Difference [2, 6]: −0.10

CS(=O)(=O)Nc1cc2occ(NC=O)c(=O)c2cc1Oc1ccccc1 [Iguratimod]
Cholesterol-free [1, 3]: 1.252
Complete ([1]; NCI-H292 cells, complete media): 0.9044
Difference [1, 4]: −0.35
Cholesterol-free media + simvastatin (0.04 μM) [2, 18]: 1.717
Complete Media [2, 10]: 1.252
Difference [2, 6]: −0.47

O=C(CCCN1CCN(c2ccccn2)CC1)c1ccc(F)cc1 [Azaperone]
Difference [1, 9]: −0.01
Cholesterol-free [1, 7]: 0.9307
Complete [1, 8]: 0.9163
Cholesterol-free media + simvastatin (0.04 μM) [2, 19]: 1.007
Complete Media [2, 20]: 0.9983
Difference [2, 21]: −0.01

CC(C)OC(=O)CNc1cccc(CN(Cc2ccc(-n3cccn3)cc2)S(=O)(=O)c2cccnc2)n1 [Omidenepag isopropyl]
Difference [1, 15]: −0.75
Cholesterol-free [1, 16]: 1.563
Complete [1, 17]: 0.8153
Cholesterol-free media + simvastatin (0.04 μM) [2, 22]: 1.236
Complete Media [2, 23]: 1.286
Difference [2, 14]: 0.05

CCn1cc(C(=O)O)c(=O)c2cc(F)c(N3CCNC(C)C3)c(F)c21 (stereo not shown) [Lomefloxacin (hydrochloride)]
Cholesterol-free [1, 3]: 1.531
Difference [1, 4]: −0.37
Cholesterol-free media + simvastatin (0.04 μM) [2, 18]: 1.657
Complete Media [2, 10]: 0.934
Difference [2, 6]: −0.72

COc1ccccc1O [Guaiacol]
Difference [1, 9]: −0.02
Cholesterol-free [1, 7]: 1.281
Complete [1, 8]: 1.265
Cholesterol-free media + simvastatin (0.04 μM) [2, 18]: 2.295
Complete Media [2, 10]: 1.473
Difference [2, 6]: −0.82

C[C@@H]1O[C@@H](O[C@H]2C[C@@H](O)[C@]3(CO)[C@H]4[C@H](O)C[C@]5(C)[C@@H](C6=CC(=O)OC6)CC[C@]5(O)[C@@H]4CC[C@]3(O)C2)[C@H](O)[C@H](O)[C@H]1O.O.O.O.O.O.O.O.O [Ouabain (Octahydrate)]
Difference ([1]; Complete minus Cholesterol-free, […]): 0.01
Cholesterol-free [1, 7]: −0.009774
Complete [1, 8]: −0.0006686
Cholesterol-free media + simvastatin (0.04 μM) [2, 19]: 0.0005446
Complete Media [2, 20]: −0.01106
Difference ([2]; complete media minus cholesterol-free media + simvastatin (0.04 μM), […]): −0.01

CC(C)(Oc1ccc(CCNC(=O)c2ccc(Cl)cc2)cc1)C(=O)O [Bezafibrate]
Difference [1, 15]: −0.60
Cholesterol-free [1, 16]: 1.652
Complete [1, 17]: 1.053
Cholesterol-free media + simvastatin (0.04 μM) [2, 19]: 1.03
Complete Media [2, 20]: 1.024
Difference [2, 21]: −0.01

CC(C(=O)O)c1ccc2c(c1)CC(=O)c1ccccc1S2 (stereo not shown) [Zaltoprofen]
Difference ([1]; Complete minus Cholesterol-free, greater than 0 enhanced anti-cancer activity, about 0 neutral, below 0 antagonist): −0.13
Cholesterol-free ([1]; NCI-H292 cells, FDA drug library screen, cholesterol-free media without statin): 1.151
Complete ([1]; NCI-H292 cells, FDA drug library screen, complete media): 1.025
Cholesterol-free media + simvastatin (0.04 μM) [2, 18]: 1.283
Complete Media [2, 10]: 0.7256
Difference [2, 6]: −0.56

Cn1c(=O)cc(N2CCC[C@@H](N)C2)n(Cc2cc(F)ccc2C#N)c1=O [Trelagliptin]
Difference [1, 9]: −0.22
Cholesterol-free [1, 3]: 0.9224
Complete ([1]; NCI-H292 cells, complete media): 0.705
Cholesterol-free media + simvastatin (0.04 μM) [2, 22]: 1.142
Complete Media [2, 23]: 1.234
Difference [2, 14]: 0.09

Dexchlorpheniramine (maleate)
Difference [1, 9]: −0.05
Cholesterol-free media + simvastatin (0.04 μM) [2, 19]: 0.9393
Complete Media [2, 20]: 0.9459
Difference [2, 21]: 0.01

O=C(O)/C=C/C(=O)O [Fumaric acid]
Cholesterol-free [1, 3]: 1.029
Complete ([1]; NCI-H292 cells, complete media): 0.6691
Difference [1, 4]: −0.36
Cholesterol-free media + simvastatin (0.04 μM) [2, 18]: 1.117
Complete Media [2, 10]: 0.8401
Difference [2, 6]: −0.28

O=C1NC(c2ccccc2)(c2ccccc2)C(=O)N1COP(=O)(O)O [Fosphenytoin (disodium)]
Difference [1, 15]: −1.22
Cholesterol-free [1, 16]: 2.489
Complete [1, 17]: 1.268
Cholesterol-free media + simvastatin (0.04 μM) [2, 18]: 1.806
Complete Media [2, 10]: 1.233
Difference [2, 6]: −0.57

N=C(N)NC(=O)Cc1c(Cl)cccc1Cl [Guanfacine (hydrochloride)]
Cholesterol-free [1, 7]: 0.9809
Complete [1, 8]: 1.601
Difference [1, 11]: 0.62
Cholesterol-free media + simvastatin (0.04 μM) [2, 12]: 1.401
Complete Media [2, 13]: 1.965
Difference [2, 14]: 0.56

CCN[C@H]1CN(CCCOC)S(=O)(=O)c2sc(S(N)(=O)=O)cc21 [Brinzolamide]
Difference [1, 9]: 0.00
Cholesterol-free [1, 7]: 0.8738
Complete [1, 8]: 0.876
Cholesterol-free media + simvastatin (0.04 μM) [2, 22]: 1.105
Complete Media [2, 23]: 1.197
Difference [2, 14]: 0.09

CC1CC(OC(=O)c2ccccc2O)CC(C)(C)C1 (stereo not shown) [Homosalate]
Cholesterol-free [1, 3]: 0.9096
Complete ([1]; NCI-H292 cells, complete media): 0.5831
Difference [1, 4]: −0.33
Cholesterol-free media + simvastatin (0.04 μM) [2, 22]: 1.411
Complete Media [2, 23]: 1.442
Difference [2, 14]: 0.03

C=C1c2cccc(O)c2C(=O)C2=C(O)[C@]3(O)C(=O)C(C(N)=O)=C(O)[C@@H](N(C)C)[C@@H]3[C@@H](O)[C@H]12 [Methacycline (hydrochloride)]
Difference [1, 15]: −0.57
Cholesterol-free [1, 16]: 1.479
Complete [1, 17]: 0.9047
Cholesterol-free media + simvastatin (0.04 μM) [2, 18]: 1.315
Complete Media [2, 10]: 0.995
Difference [2, 6]: −0.32

C[C@@H](O)[C@H]1C(=O)N2C(C(=O)O)=C(SCCN=CN)C[C@H]12 [Imipenem monohydrate]
Difference [1, 9]: −0.03
Cholesterol-free [1, 7]: 1.1
Complete [1, 8]: 1.066
Cholesterol-free media + simvastatin (0.04 μM) [2, 19]: 0.9916
Complete Media [2, 20]: 0.9548
Difference [2, 21]: −0.04

COc1ccccc1OCC(O)COC(N)=O (stereo not shown) [Methocarbamol]
Difference [1, 9]: −0.29
Cholesterol-free [1, 3]: 1.357
Complete ([1]; NCI-H292 cells, complete media): 1.063
Cholesterol-free media + simvastatin (0.04 μM) [2, 18]: 1.33
Complete Media [2, 10]: 0.8727
Difference [2, 6]: −0.46
